Measurements as given in the supplement of paper PMC4932681.

Columns and labels:
[1] = tested on: MCF-7 Tam1; experiment: drug sensitivity score (DSS) (DSS (dimensionless)); higher = more sensitive; extreme values may be limits of the assay; details: 4-OH-tamoxifen in medium 1 µM; 72 h
Procedure: (§1)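 FIMM FO2B library drugs were tested at 5 concentrations (10,000-fold range) for 72 h, with CellTiter-Glo viability normalised to DMSO and benzethonium chloride controls. The Drug Sensitivity Score (DSS) is computed from the fitted logistic dose-response curve (area-based; 0 = inactive). Resistant lines and the 'in 1µM tamoxifen' arms were tested in 1 µM 4-OH-tamoxifen.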

[2] = tested on: BT-474; experiment: as above; details: 72 h
Procedure: as §1

[3] = tested on: BT-474 Tam2; experiment: as above; details: 4-OH-tamoxifen in medium 1 µM; 72 h
Procedure: as §1

[4] = tested on: ZR-75-1 Tam1; experiment: as above; details: 4-OH-tamoxifen in medium 1 µM; 72 h
Procedure: as §1

[5] = tested on: T-47D Tam2; experiment: as above; details: 4-OH-tamoxifen in medium 1 µM; 72 h
Procedure: as §1

[6] = tested on: T-47D; experiment: as above; details: 72 h
Procedure: as §1

[7] = tested on: T-47D Tam1; experiment: as above; details: 4-OH-tamoxifen in medium 1 µM; 72 h
Procedure: as §1

[8] = tested on: MCF-7; experiment: as above; details: 72 h
Procedure: as §1

[9] = tested on: ZR-75-1 Tam2; experiment: as above; details: 4-OH-tamoxifen in medium 1 µM; 72 h
Procedure: as §1

[10] = tested on: BT-474 Tam1; experiment: as above; details: 4-OH-tamoxifen in medium 1 µM; 72 h
Procedure: as §1

[11] = tested on: ZR-75-1; experiment: as above; details: 72 h
Procedure: as §1

[12] = tested on: BT-474; experiment: relative IC50 (midpoint of fitted logistic curve, plateau may be below 50% inhibition; CellTiter-Glo viability); higher = less potent; details: 72 h
Procedure: (§2)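 FIMM FO2B library drugs were plated at 5 concentrations spanning a 10,000-fold range in 384-well plates. Cells were incubated for 72 h at 37 °C and viability was read by CellTiter-Glo, normalised to DMSO (0% inhibition) and 100 µM benzethonium chloride (100% inhibition). IC50 values come from logistic dose-response fits (Breeze pipeline). Tamoxifen-resistant lines and the 'in 1µM tamoxifen' parental arms were tested in medium with 1 µM 4-OH-tamoxifen.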

[13] = tested on: BT-474 Tam2; experiment: as above; details: 4-OH-tamoxifen in medium 1 µM; 72 h
Procedure: as §2

[14] = tested on: ZR-75-1 Tam1; experiment: as above; details: 4-OH-tamoxifen in medium 1 µM; 72 h
Procedure: as §2

[15] = tested on: T-47D; experiment: as above; details: 72 h
Procedure: as §2

[16] = tested on: T-47D Tam1; experiment: as above; details: 4-OH-tamoxifen in medium 1 µM; 72 h
Procedure: as §2

[17] = tested on: MCF-7; experiment: as above; details: 72 h
Procedure: as §2

[18] = tested on: ZR-75-1 Tam2; experiment: as above; details: 4-OH-tamoxifen in medium 1 µM; 72 h
Procedure: as §2

[19] = tested on: BT-474 Tam1; experiment: as above; details: 4-OH-tamoxifen in medium 1 µM; 72 h
Procedure: as §2

[20] = tested on: ZR-75-1; experiment: as above; details: 72 h
Procedure: as §2

Structure (SMILES) | drug sensitivity score [1] | drug sensitivity score ([2]; 4-OH-tamoxifen in medium 0 µM) | drug sensitivity score ([2]; 4-OH-tamoxifen in medium 1 µM) | drug sensitivity score [3] | drug sensitivity score [4] | drug sensitivity score [5] | drug sensitivity score ([6]; 4-OH-tamoxifen in medium 0 µM) | drug sensitivity score ([6]; 4-OH-tamoxifen in medium 1 µM) | drug sensitivity score [7] | drug sensitivity score ([8]; 4-OH-tamoxifen in medium 0 µM) | drug sensitivity score ([8]; 4-OH-tamoxifen in medium 1 µM) | drug sensitivity score [9] | drug sensitivity score [10] | drug sensitivity score ([11]; 4-OH-tamoxifen in medium 0 µM) | drug sensitivity score ([11]; 4-OH-tamoxifen in medium 1 µM) | relative IC50 ([12]; 4-OH-tamoxifen in medium 0 µM) [µM] | relative IC50 ([12]; 4-OH-tamoxifen in medium 1 µM) [µM] | relative IC50 [13] [µM] | relative IC50 [14] [µM] | relative IC50 ([15]; 4-OH-tamoxifen in medium 0 µM) [µM] | relative IC50 [16] [µM] | relative IC50 ([17]; 4-OH-tamoxifen in medium 0 µM) [µM] | relative IC50 [18] [µM] | relative IC50 [19] [µM] | relative IC50 ([20]; 4-OH-tamoxifen in medium 0 µM) [µM] | relative IC50 ([20]; 4-OH-tamoxifen in medium 1 µM) [µM] | relative IC50 ([17]; 4-OH-tamoxifen in medium 1 µM) [µM] | relative IC50 ([15]; 4-OH-tamoxifen in medium 1 µM) [µM]
Cn1cc(C2=Nc3cc(NC(=O)C(N)C4CCCCC4)cc4c3C2=CNNC4=O)cn1 (configuration not stated) | 0 | 0 | 0 | 0 | 0 | 2.29 | 0 | 0.174 | 4.76 | 2.19 | 0.0458 | 0 | 0 | 0 | 0 | > 10 | > 10 | > 10 | > 10 | > 10 | 1.41 | 1.89 | > 10 | > 10 | > 10 | > 10 |  | 
Cc1sc2c(c1C)C(c1ccc(Cl)cc1)=N[C@@H](CC(=O)OC(C)(C)C)c1nnc(C)n1-2 [(+)JQ1] | 0.216 | 6.3 | 7.87 | 8.29 | 7.1 | 2.91 | 5.63 | 2.13 | 11 | 12.8 | 6.92 | 6.24 | 8.34 | 3.81 | 4.27 | 0.136 | 1.06 | 1.12 | 0.238 | 0.345 | 0.146 | 0.189 | 0.336 | 1.14 |  | 0.359 | 0.851 | 
Cn1cnc2c(F)c(Nc3ccc(Br)cc3Cl)c(C(=O)NOCCO)cc21 [Selumetinib  (AZD6244)] | 0.168 | 0 | 2.57 | 0 | 0 | 0.0086 | 0 | 0 | 8.55 | 0.0626 | 1.86 | 0 | 0.393 | 0 | 0 | > 10 |  | > 10 | > 10 | > 10 | 0.975 |  | > 10 |  | > 10 | > 10 |  | > 10
CC(=O)Nc1cccc(-n2c(=O)n(C3CC3)c(=O)c3c(Nc4ccc(I)cc4F)n(C)c(=O)c(C)c32)c1 | 0.101 | 0 | 0.246 | 0 | 0 | 2.69 | 0 | 0.259 | 2.19 | 0 | 3.01 | 0 | 0 | 0 | 0 | > 0.25 |  | > 0.25 | > 0.25 | > 0.25 |  | > 0.25 | > 0.25 | > 0.25 | > 0.25 | > 0.25 |  | > 0.25
Cc1c(C(=O)Nc2ccc(N3C[C@@H](C)O[C@@H](C)C3)nc2)cccc1-c1ccc(OC(F)(F)F)cc1 [Erismodegib (NVP-LDE225)] | 0.695 | 0.627 | 1.78 | 1.6 | 0.271 | 1.05 | 0.587 | 0 | 0 | 0.927 | 0.267 | 0 | 0.226 | 0 | 0.747 |  | 3.61 |  |  |  | > 10 |  | > 10 |  | > 10 |  |  | > 10
CO[C@H]1C[C@@H]2CC[C@@H](C)[C@@](O)(O2)C(=O)C(=O)N2CCCC[C@H]2C(=O)O[C@H]([C@H](C)C[C@@H]2CC[C@@H](OC(=O)C(C)(CO)CO)[C@H](OC)C2)CC(=O)[C@H](C)/C=C(\C)[C@@H](O)[C@@H](OC)C(=O)[C@H](C)C[C@H](C)/C=C/C=C/C=C/1C [Temsirolimus] | 0.189 | 0.668 | 0 | 0.262 | 4.48 | 2.09 | 3.79 | 0.468 | 5.45 | 10.3 | 6.12 | 8.51 | 1.35 | 8.12 | 4.72 |  | > 0.1 |  | 0.00267 |  | 0.00204 | 0.000493 | 0.00108 |  | 0.000917 |  | 0.002 | 
Cn1cnc2c(F)c(Nc3ccc(Br)cc3F)c(C(=O)NOCCO)cc21 [MEK-162 (ARRY-162)] | 0 | 0 | 1.07 | 0 | 0 | 0.511 | 0 | 0 | 3.1 | 0.0194 | 1.02 | 0 | 0 | 0 | 0 | > 1 |  | > 1 | > 1 | > 1 |  |  | > 1 | > 1 | > 1 | > 1 |  | > 1
